Test results reported in patent US8835461B2, “Substituted 3-hydroxy-4-pyridone derivative” (priority 2009, dated 2014).
pIC50: −log10 of the molar value.

The compounds below were run against Cap-dependent endonuclease (CEN); RNP fraction containing PB1•PB2•PA complex (Influenza A virus, UniProt P15659) (assay: Measurement of cap-dependent endonuclease (CEN) inhibitory activity). Conditions: RNP enzyme from A/WSN/33 virus, capped Cy3/BHQ2-labelled 30mer RNA substrate, 60 minutes at room temperature; read-out: CEN IC50.
Type: biochemical, influenza A/WSN/33 virus
Work on `O=C(O)c1cn(C[C@@H]2CCCN2c2ccccc2)cc(O)c1=O` [Example 57] yielded a pIC50 of 6.37. Work on `O=C(O)c1cn(CC2(c3ccc4c(c3)OCO4)CCCC2)cc(O)c1=O` [Example 171] yielded a pIC50 of 7.80. `O=C(O)c1cn(CC2(c3ccccn3)CCCC2)cc(O)c1=O` [Example 177] gave a pIC50 of 6.96. For `O=C(O)c1cn(CC2(n3ccc4cccnc43)CCCC2)cc(O)c1=O` [Example 185], the pIC50 was 8.30. Work on `O=C(O)c1cn(CC2(c3ccccc3)CCOCC2)cc(O)c1=O` [Example 183] yielded a pIC50 of 6.75. In the case of `O=C(O)c1cn(CC2(c3ccccc3)CCCC2)cc(O)c1=O` [Example 112], the pIC50 was 7.21. For `O=C(O)c1cn(Cc2ccccc2-c2ccc(NCC3CCCCC3)nc2)cc(O)c1=O` [Example 52], the pIC50 was 6.34. For `O=C(O)c1cn(CC2(c3cccc(C(F)(F)F)c3)CCCC2)cc(O)c1=O` [Example 167], the pIC50 was 7.92. `O=C(NS(=O)(=O)C1CC1)c1cn(Cc2ccccc2-c2ccccc2)cc(O)c1=O` [Example 195] showed a pIC50 of 6.17. With `O=C(O)c1cn(Cc2ccccc2-c2ccccc2)cc(O)c1=O` [Example 10] the pIC50 was 6.66. For `O=C(O)c1cn(CC2CCCCN2C(=O)OCc2ccccc2F)cc(O)c1=O` (stereo not drawn) [Example 127], the pIC50 was 6.50. With `N#Cc1ccccc1CN1CCCCC1Cn1cc(O)c(=O)c(C(=O)O)c1` (stereo not drawn) [Example 116] the pIC50 was 6.66. `CCCCS(=O)(=O)NC(=O)c1cn(Cc2ccccc2-c2ccccc2)cc(O)c1=O` [Example 197] showed a pIC50 of 6.27. Compound `O=C(O)c1cn(CC2(c3nc4ccccc4s3)CCCC2)cc(O)c1=O` [Example 173] has a pIC50 of 7.33. Compound `O=C(O)c1cn(CC2(c3ccccc3)Cc3ccccc3C2)cc(O)c1=O` [Example 182] has a pIC50 of 6.56. Compound `O=c1c(O)cn(Cc2ccccc2-c2ccc(F)c(Cl)c2)cc1O` [Example 222] has a pIC50 of 6.29. In the case of `O=C(O)c1cn(CC2CCCC2)cc(O)c1=O` [Example 18], the pIC50 was 6.07. Work on `CC(=O)c1ccc(-c2ccccc2Cn2cc(O)c(=O)c(C(=O)O)c2)cc1` [Example 22] yielded a pIC50 of 6.66. `O=C(O)c1cn(CC2(n3ccc4ccccc43)CCCC2)cc(O)c1=O` [Example 186] gave a pIC50 of 7.46. `COc1ncc(-c2ccccc2Cn2cc(O)c(=O)c(C(=O)O)c2)cn1` [Example 46] gave a pIC50 of 6.49. `O=C(O)c1cn(CC2(c3cccc4ccccc34)CCCC2)cc(O)c1=O` [Example 178] was tested, and the pIC50 was 7.55.

Same assay, conditions: statement in text following Table 36; same CEN assay; read-out: IC50 (CEN)
With `O=C(O)c1cn(Cc2cccn2-c2ccccc2)cc(O)c1=O` [Example 226] the pIC50 was at least 6.00. With `O=c1c(O)cn(CC2(c3cccc(F)c3)CCCC2)cc1-c1nnn[nH]1` [Example 233] the pIC50 was at least 6.00. Work on `O=C(O)c1cn(CC2(C(=O)Nc3ccccc3)CCCC2)cc(O)c1=O` [Example 232] yielded a pIC50 of at least 6.00. Work on `Cn1cc(C2(Cn3cc(O)c(=O)c(C(=O)O)c3)CCCC2)c2ccccc21` [Example 244] yielded a pIC50 of at least 6.00. Work on `O=C(O)c1cn(CC2(n3ccc4cc(Cl)cnc43)CCCC2)cc(O)c1=O` [Example 240] yielded a pIC50 of at least 6.00. With `O=C(O)c1cn(CC2(c3cccc(N4CCCCC4=O)c3)CCCC2)cc(O)c1=O` [Example 235] the pIC50 was at least 6.00. `O=C(O)c1cn(CC2(n3cc(C(F)(F)F)c4cccnc43)CCCC2)cc(O)c1=O` [Example 243] was tested, and the pIC50 was at least 6.00. For `O=C(O)c1cn(CC2(c3ccnc(NCC4CCCCC4)c3)CCCC2)cc(O)c1=O` [Example 239], the pIC50 was at least 6.00. Work on `O=C(O)c1cn(CC2(c3ccnc(-n4cccn4)c3)CCCC2)cc(O)c1=O` [Example 238] yielded a pIC50 of at least 6.00. `O=C(O)c1cn(CC2(C(=O)c3ccccc3)CCCC2)cc(O)c1=O` [Example 231] was tested, and the pIC50 was at least 6.00. Compound `CC(C)(Cn1cc(O)c(=O)c(C(=O)O)c1)c1ccccc1` [Example 227] has a pIC50 of at least 6.00. With `O=C(O)c1cn(CC2(c3cccc(N4CCCS4(=O)=O)c3)CCCC2)cc(O)c1=O` [Example 236] the pIC50 was at least 6.00. `O=C(O)c1cn(CC2(c3cccc(N4CCCC4=O)c3)CCCC2)cc(O)c1=O` [Example 234] was tested, and the pIC50 was at least 6.00. For `Cn1cc(C2(Cn3cc(O)c(=O)c(C(=O)O)c3)CCCC2)c2ncccc21` [Example 242], the pIC50 was at least 6.00. Compound `Cn1cc(C2(Cn3cc(O)c(=O)c(C(=O)NS(C)(=O)=O)c3)CCCC2)c2ccccc21` [Example 246] has a pIC50 of at least 6.00.
